One may read the inhibition as the drop in the measured response relative to a control, in per cent.

The results in this text go back to patent publication US9918963B2, “Therapeutic agent for disease based on inhibitory effect of macrophage migration inhibitory factor” (TOYAMA CHEMICAL CO., LTD., priority 2013, dated 2018).

One assay deals with T1, MIF (Homo sapiens, UniProt P14174).
T1 construct: (catalogue number not given); host or cells: E. coli BL21 Star (DE3)
T1 sequence (P14174 2-115 limits assumed): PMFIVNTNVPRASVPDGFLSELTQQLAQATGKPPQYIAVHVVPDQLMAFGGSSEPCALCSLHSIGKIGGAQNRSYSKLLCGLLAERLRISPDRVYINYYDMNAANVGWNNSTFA
The assay is described as follows: Inhibition of MIF tautomerase activity (L-dopachrome methyl ester, absorbance at 475 nm). The class given is biochemical. Particulars: 30 μmol/L test substance, 10 to 50 nmol/L MIF, pH 6.2, control = 100%; read-out: Inhibition Rate of Tautomerase Reaction. How it is done: The inhibitory effect of test substances against tautomerase activity of MIF was evaluated by referring to a method of Healy et al. (Cancer Epidemiology Biomarkers and Prevention, 2011, vol. 20, pp. 1516-1523).
In this method, tautomeric reaction from L-3,4-dihydroxyphenylalanine methyl ester (L-dopachrome methyl ester, colored) to 5,6-hydroxyindole-2-carboxylic acid methyl ester (no color) is measured as a change in absorbance at 475 nm.
As an enzyme source, recombinant MIF manufactured by Abcam Plc. or MIF produced and purified by referring to a method of Lubetsky et al. (The Journal of Biological Chemistry, 2002, vol. 277, pp. 24976-24982) was used. A purification method for MIF is described below.
The pET15b vector (Merck) into which the full length gene sequence of MIF had been inserted was transfected E. coli BL21 Star (DE3) strain (Life Technologies Corporation). […] The E. coli were resuspended in buffer (pH 7.5) containing 20 mmol/L Tris (Wako Pure Chemical Industries, Ltd.), 20 mmol/L sodium chloride (Wako Pure Chemical Industries, Ltd.) and 1 mmol/L dithiothreitol (Wako Pure Chemical Industries, Ltd.), and the resultant was subjected to ultrasonic lysis and centrifugation at 15000 rpm for 10 minutes. The thus obtained supernatant was filtered using a 0.20 μm filter, and was allowed to pass through HiTrap Q HP and HiTrap SP HP columns (GE Healthcare Japan Corporation), so as to separate flow-through fractions each of 5 mL. Each of 10 μL of the separated fractions was subjected to the electrophoresis using 5 to 20% polyacrylamide gel (Wako Pure Chemical Industries, Ltd.), and all proteins were stained with Coomassie brilliant blue reagent (Bio-Rad Laboratories, Inc.). On the basis of results thus obtained, a fraction containing a large amount of MIF and containing least amount of other proteins was selected as purified MIF. The concentration of MIF protein was measured by using BCA protein assay reagent (Thermo Fisher Scientific K. K.).
Inhibitory effect of each test substance against MIF tautomerase activity was measured as follows.
A final concentration of 10 to 50 nmol/L of MIF and a final concentration of 30 μmol/L of each test substance or 0.5% dimethyl sulfoxide (Wako Pure Chemical Industries, Ltd.) as a control were added to buffer (pH 6.2) containing 50 mmol/L Bis-Tris (Dojindo Laboratories) and 1 mmol/L EDTA (Dojindo Laboratories), and reaction was performed at room temperature for 15 minutes to give a reaction solution 1.
On the other hand, 1/20 volume of 12 mmol/L L-3,4-dihydroxyphenylalanine methyl ester (Sigma Aldrich) and 1/20 volume of 24 mmol/L sodium periodate (Wako Pure Chemical Industries, Ltd.) were added to buffer having the same composition as that used for obtaining the reaction solution 1, to give a reaction solution 2.
Next, the reaction solution 1 and the reaction solution 2 were mixed, and the temporal change of absorbance at 475 nm of the obtained mixture was immediately measured.
The difference of the absorbencies between the at about 1 minute after the measurement start and at about 5 minutes after was obtained. Assuming that the absorbance change of the control is 100%, an inhibiting rate of the tautomerase reaction in presence of=each test substance was calculated.

In assay [1] the test system is chronic relapsing EAE model of mouse. The class given is in vivo. On the procedure:
Compound A was selected as a test substance, and salazosulfapyridine (hereinafter referred to as SASP) was selected as a comparative control agent. Compound A was administered at a dose of 30 mg/kg (Compound A group). SASP was administered at a dose of 300 mg/kg (SASP group). In control group and normal group (no induction treatment group), 0.5% methyl cellulose aqueous solution used as vehicle of the administration liquid was administered.
The chronic relapsing EAE was induced in SJL/J female mice by immunization with partial PLP peptide. Briefly, an emulsion was prepared by mixing equivalent volumes of phosphate buffer saline containing 1 mg/mL of the peptide corresponding to residues 139-151 of the PLP and Freund's […] adjuvant containing 4 mg/mL of killed M. Tuberculosis H37Ra. The emulsion was intradermically injected (50 μg of PLP per mouse) into four positions on the back for immunization, and additionally, on the day of the immunization and two days after, pertussis toxin was intraperitoneally injected in each amount of 150 ng per mouse, twice in total. The vehicle, the test substance or the reference article was orally administered continuously for 44 days once daily from the day of the immunization.
In the present experiment, paralysis was developed to reach a peak on the 14th to 16th day after the immunization, and the symptom remitted once, but relapsed to reach a peak on the 38th day.
The symptom was evaluated in accordance with a report of Weaver et al. (FASEB Journal, 2005, vol. 19, p. 1668). Briefly, paralysis of all of the four limbs and the tail was evaluated by scoring in 4 ranks of scores of 0 to 3 and in 3 ranks of scores of 0 to 2, respectively, and the sum of the scores was determined as EAE score (the maximum score 14).
Incidence rates (the number of mice having developed the disease/the number of used mice) and the average of EAE score of each group were measured at the period of initial onset (on the 15th day after the immunization) and at the period of relapse (on the 38th day after the immunization).

Take `CS(=O)(=O)Nc1cc2occ(NC=O)c(=O)c2cc1Oc1ccccc1` [Compound A, N-[7-[(methylsulfonyl)amino]-4-oxo-6-phenoxy-4H-1-benzopyran-3-yl]formamide]: at MIF, the inhibition at 30 µM lay in the range of 50 to 75%. The “EAE score, period of initial onset” value in assay [1] (15th day after immunization, average, maximum score 14, oral once daily (Compound A 30 mg/kg, SASP 300 mg/kg)) came to 1.4. The “Incidence rate, period of initial onset” value in assay [1] (15th day after immunization, mice having developed the disease/mice used, oral once daily from immunization (Compound A 30 mg/kg, SASP 300 mg/kg)) was 1/8. Besides, the “EAE score, period of relapse” value in assay [1] (38th day after immunization, average, maximum score 14, oral once daily (Compound A 30 mg/kg, SASP 300 mg/kg)) is recorded as 0.3. In assay [1] (38th day after immunization, mice having developed the disease/mice used, oral once daily (Compound A 30 mg/kg, SASP 300 mg/kg)), the “Incidence rate, period of relapse” value is reported as 2/8. For the same compound, in assay [1] (oral once daily for 44 days from immunization (Compound A 30 mg/kg, SASP 300 mg/kg)), the “Effect on incidence rate / EAE score, paralysis of chronic relapsing EAE” value was “suppressed the occurrence of paralysis”.
